From patent US12673944B2, “Compounds having inhibitory activity against glucosylceramide synthase or pharmaceutically acceptable salt thereof, processes for preparing the same, and pharmaceutical compositions comprising the same” (YUHAN CORPORATION, priority 2019, dated 2026)

How the values were obtained:
[1] = tested on: GM1 production in Jurkat cells; assay: cells; assay type: cell-based; details: Homo sapiens, Jurkat, 72 h
[2] = biological target: T1, glucosylceramide synthase (GCS) (Homo sapiens, UniProt Q16739); assay: GCS enzyme inhibition assay (A549 cell lysate, NBD C6-ceramide, HPLC fluorescence); assay type: biochemical; details: inhibitory activity against GCS, 37° C., 90 minutes
T1 construct: The obtained supernatant was used; host or cells: A549 cells (lysate supernatant after sonication)
T1 sequence (Q16739 1-394): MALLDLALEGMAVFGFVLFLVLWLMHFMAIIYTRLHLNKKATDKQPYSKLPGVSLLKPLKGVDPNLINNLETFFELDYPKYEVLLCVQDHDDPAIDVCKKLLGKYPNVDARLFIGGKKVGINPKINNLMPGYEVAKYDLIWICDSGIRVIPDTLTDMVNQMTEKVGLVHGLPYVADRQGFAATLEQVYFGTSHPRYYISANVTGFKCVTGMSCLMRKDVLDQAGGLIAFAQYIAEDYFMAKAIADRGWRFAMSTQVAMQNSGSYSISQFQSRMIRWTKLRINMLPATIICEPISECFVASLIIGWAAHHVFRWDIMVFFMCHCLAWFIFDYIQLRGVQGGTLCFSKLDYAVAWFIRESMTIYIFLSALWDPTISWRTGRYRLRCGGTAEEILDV
How it was run: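 A549 cell lysate (50 mM HEPES pH 7.3) served as GCS source; reactions ran 90 min at 37° C, were stopped with chloroform/methanol and lipids extracted. Activity taken as GlcCer/(Cer+GlcCer) peak area, normalised between DMSO and ibiglustat controls.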

Row | SMILES | IC50 [1] | IC50 [2]
1 | O=C(NC1CCOc2ccc(-c3ccccc3F)cc21)O[C@@H]1CN2CCC1CC2 (stereo partly drawn) [Example 87, (S)-quinuclidin-3-yl (6-(2-fluorophenyl)chroman-4-yl)carbamate] | 98.7 nM | 3.57 nM
2 | O=C(NC1CCOc2ccc(-c3ccc(Cl)cc3)cc21)O[C@@H]1CN2CCC1CC2 (stereo partly drawn) [Example 88, (S)-quinuclidin-3-yl (6-(4-chlorophenyl)chroman-4-yl)carbamate] | 160 nM | 9.41 nM
3 | O=C(NC1CCOc2ccc(-c3cccc(Cl)c3)cc21)O[C@@H]1CN2CCC1CC2 (stereo partly drawn) [Example 89, (S)-quinuclidin-3-yl (6-(3-chlorophenyl)chroman-4-yl)carbamate] | 216 nM | 6.63 nM
4 | O=C(NC1CCOc2ccc(-c3ccccc3Cl)cc21)O[C@@H]1CN2CCC1CC2 (stereo partly drawn) [Example 90, (S)-quinuclidin-3-yl (6-(2-chlorophenyl)chroman-4-yl)carbamate] | 141 nM | 4.27 nM
5 | O=C(NC1CCOc2ccc(-c3ccc(C(F)(F)F)cc3)cc21)O[C@@H]1CN2CCC1CC2 (stereo partly drawn) [Example 91, (S)-quinuclidin-3-yl (6-(4-(trifluoromethyl)phenyl)chroman-4-yl)carbamate] | 171 nM | 5.38 nM
6 | O=C(NC1CCOc2ccc(-c3cccc(C(F)(F)F)c3)cc21)O[C@@H]1CN2CCC1CC2 (stereo partly drawn) [Example 92, (S)-quinuclidin-3-yl (6-(3-(trifluoromethyl)phenyl)chroman-4-yl)carbamate] | 495 nM | 29.6 nM
7 | O=C(NC1CCOc2ccc(-c3ccccc3C(F)(F)F)cc21)O[C@@H]1CN2CCC1CC2 (stereo partly drawn) [Example 93, (S)-quinuclidin-3-yl (6-(2-(trifluoromethyl)phenyl)chroman-4-yl)carbamate] | 79.8 nM | 4.25 nM
8 | O=C(NC1CCOc2ccc(-c3ccc(OC(F)(F)F)cc3)cc21)O[C@@H]1CN2CCC1CC2 (stereo partly drawn) [Example 94, (S)-quinuclidin-3-yl (6-(4-(trifluoromethoxy)phenyl)chroman-4-yl)carbamate] | 408 nM | 8.13 nM
9 | O=C(NC1CCOc2ccc(-c3cccc(OC(F)(F)F)c3)cc21)O[C@@H]1CN2CCC1CC2 (stereo partly drawn) [Example 95, (S)-quinuclidin-3-yl (6-(3-(trifluoromethoxy)phenyl)chroman-4-yl)carbamate] | 513 nM | 19.8 nM
10 | O=C(NC1CCOc2ccc(-c3ccccc3OC(F)(F)F)cc21)O[C@@H]1CN2CCC1CC2 (stereo partly drawn) [Example 96, (S)-quinuclidin-3-yl (6-(2-(trifluoromethoxy)phenyl)chroman-4-yl)carbamate] | 78.9 nM | 8.55 nM
11 | CSc1ccc(-c2ccc3c(c2)C(NC(=O)O[C@@H]2CN4CCC2CC4)CCO3)cc1 (stereo partly drawn) [Example 97, (S)-quinuclidin-3-yl (6-(4-(methylthio)phenyl)chroman-4-yl)carbamate] | 502 nM | 11.5 nM
12 | CSc1cccc(-c2ccc3c(c2)C(NC(=O)O[C@@H]2CN4CCC2CC4)CCO3)c1 (stereo partly drawn) [Example 98, (S)-quinuclidin-3-yl (6-(3-(methylthio)phenyl)chroman-4-yl)carbamate] | 525 nM | 14.9 nM
13 | Cc1ccc(-c2ccc3c(c2)C(NC(=O)O[C@@H]2CN4CCC2CC4)CCO3)cc1 (stereo partly drawn) [Example 99, (S)-quinuclidin-3-yl (6-(p-tolyl)chroman-4-yl)carbamate] | 322 nM | 19.2 nM
14 | N#Cc1ccc(-c2ccc3c(c2)C(NC(=O)O[C@@H]2CN4CCC2CC4)CCO3)cc1 (stereo partly drawn) [Example 100, (S)-quinuclidin-3-yl (6-(4-cyanophenyl)chroman-4-yl)carbamate] | 289 nM | 7.1 nM
15 | CC1(C)COc2ccc(-c3cccc(F)c3)cc2C1NC(=O)O[C@@H]1CN2CCC1CC2 (stereo partly drawn) [Example 101, (S)-quinuclidin-3-yl (6-(3-fluorophenyl)-3,3-dimethylchroman-4-yl)carbamate] | 65.9 nM | 9.2 nM
16 | CC1(C)COc2cc(-c3cccc(F)c3)ccc2C1NC(=O)O[C@@H]1CN2CCC1CC2 (stereo partly drawn) [Example 102, (S)-quinuclidin-3-yl (7-(3-fluorophenyl)-3,3-dimethylchroman-4-yl)carbamate] | 2.81 nM | 0.8 nM
17 | CC1(C)COc2cc(-c3cccc(Cl)c3)ccc2C1NC(=O)O[C@@H]1CN2CCC1CC2 (stereo partly drawn) [Example 103, (S)-quinuclidin-3-yl (7-(3-chlorophenyl)-3,3-dimethylchroman-4-yl)carbamate] | 1.43 nM | 1 nM

Row | SMILES | IC50 [1] | IC50 [2]
18 | CC1(C)COc2cc(-c3cccc(C(F)(F)F)c3)ccc2C1NC(=O)O[C@@H]1CN2CCC1CC2 (stereo partly drawn) [Example 104, (S)-quinuclidin-3-yl (3,3-dimethyl-7-(3-(trifluoromethyl)phenyl)chroman-4-yl)carbamate] | 1.02 nM | 1 nM
19 | CC1(C)COc2cc(-c3cccc(OC(F)(F)F)c3)ccc2C1NC(=O)O[C@@H]1CN2CCC1CC2 (stereo partly drawn) [Example 105, (S)-quinuclidin-3-yl (3,3-dimethyl-7-(3-(trifluoromethoxy)phenyl)chroman-4-yl)carbamate] | 1.41 nM | 1.11 nM
20 | COCOc1ccccc1-c1ccc2c(c1)OCC(C)(C)C2NC(=O)O[C@@H]1CN2CCC1CC2 (stereo partly drawn) [Example 106, (S)-quinuclidin-3-yl (7-(2-(methoxymethoxy)phenyl)-3,3-dimethylchroman-4-yl)carbamate] | 0.22 nM | 1.17 nM
21 | COCOc1cccc(-c2ccc3c(c2)OCC(C)(C)C3NC(=O)O[C@@H]2CN3CCC2CC3)c1 (stereo partly drawn) [Example 107, (S)-quinuclidin-3-yl (7-(3-(methoxymethoxy)phenyl)-3,3-dimethylchroman-4-yl)carbamate] | 0.1 nM | 1.17 nM
22 | COCOc1ccc(-c2ccc3c(c2)OCC(C)(C)C3NC(=O)O[C@@H]2CN3CCC2CC3)cc1 (stereo partly drawn) [Example 108, (S)-quinuclidin-3-yl (7-(4-(methoxymethoxy)phenyl)-3,3-dimethylchroman-4-yl)carbamate] | 0.46 nM | 0.69 nM
23 | COCCOc1ccccc1-c1ccc2c(c1)OCC(C)(C)C2NC(=O)O[C@@H]1CN2CCC1CC2 (stereo partly drawn) [Example 109, (S)-quinuclidin-3-yl (7-(2-(2-methoxyethoxy)phenyl)-3,3-dimethylchroman-4-yl)carbamate] | 2 nM | 2.14 nM
24 | COCCOc1cccc(-c2ccc3c(c2)OCC(C)(C)C3NC(=O)O[C@@H]2CN3CCC2CC3)c1 (stereo partly drawn) [Example 110, (S)-quinuclidin-3-yl (7-(3-(2-methoxyethoxy)phenyl)-3,3-dimethylchroman-4-yl)carbamate] | 0.12 nM | 1.3 nM
25 | COCCOc1ccc(-c2ccc3c(c2)OCC(C)(C)C3NC(=O)O[C@@H]2CN3CCC2CC3)cc1 (stereo partly drawn) [Example 111, (S)-quinuclidin-3-yl (7-(4-(2-methoxyethoxy)phenyl)-3,3-dimethylchroman-4-yl)carbamate] | 1.27 nM | 1.93 nM
26 | CC1(C)COc2cc(-c3cccc(C(F)F)c3)ccc2C1NC(=O)O[C@@H]1CN2CCC1CC2 (stereo partly drawn) [Example 112, (S)-quinuclidin-3-yl (7-(3-(difluoromethyl)phenyl)-3,3-dimethylchroman-4-yl)carbamate] | 0.55 nM | 0.53 nM
27 | Cc1ccc(-c2ccc3c(c2)OCC(C)(C)C3NC(=O)O[C@@H]2CN3CCC2CC3)c2cccnc12 (stereo partly drawn) [Example 113, (S)-quinuclidin-3-yl (3,3-dimethyl-7-(8-methylquinolin-5-yl)chroman-4-yl)carbamate] | 13 nM | 2.92 nM
28 | COc1cc(OC)cc(-c2ccc3c(c2)OCC(C)(C)C3NC(=O)O[C@@H]2CN3CCC2CC3)c1 (stereo partly drawn) [Example 114, (S)-quinuclidin-3-yl (7-(3,5-dimethoxyphenyl)-3,3-dimethylchroman-4-yl)carbamate] | 2.81 nM | 0.75 nM
29 | COc1ccc(-c2ccc3c(c2)OCC(C)(C)C3NC(=O)O[C@@H]2CN3CCC2CC3)cc1C (stereo partly drawn) [Example 115, (S)-quinuclidin-3-yl (7-(4-methoxy-3-methylphenyl)-3,3-dimethylchroman-4-yl)carbamate] | 3.72 nM | 1.88 nM
30 | COc1ccc(-c2ccc3c(c2)OCC(C)(C)C3NC(=O)O[C@@H]2CN3CCC2CC3)c(C)c1 (stereo partly drawn) [Example 116, (S)-quinuclidin-3-yl (7-(4-methoxy-2-methylphenyl)-3,3-dimethylchroman-4-yl)carbamate] | 1.16 nM | 1.39 nM
31 | COc1ccc(-c2ccc3c(c2)OCC(C)(C)C3NC(=O)O[C@@H]2CN3CCC2CC3)cc1Cl (stereo partly drawn) [Example 117, (S)-quinuclidin-3-yl (7-(3-chloro-4-methoxyphenyl)-3,3-dimethylchroman-4-yl)carbamate] | 4.43 nM | 1.66 nM
32 | COc1ccc(-c2ccc3c(c2)OCC(C)(C)C3NC(=O)O[C@@H]2CN3CCC2CC3)cc1F (stereo partly drawn) [Example 118, (S)-quinuclidin-3-yl (7-(3-fluoro-4-methoxyphenyl)-3,3-dimethylchroman-4-yl)carbamate] | 3.63 nM | 1.63 nM
33 | COc1ccc(-c2ccc3c(c2)OCC(C)(C)C3NC(=O)O[C@@H]2CN3CCC2CC3)c(Cl)c1 (stereo partly drawn) [Example 119, (S)-quinuclidin-3-yl (7-(2-chloro-4-methoxyphenyl)-3,3-dimethylchroman-4-yl)carbamate] | 1.25 nM | 0.65 nM
